Test [1] addresses T1, human Kv3.1 channels (hKv3.1) (Homo sapiens, UniProt P48547).
T1 construct: expressed in transfected cells
T1 sequence (P48547 1-511): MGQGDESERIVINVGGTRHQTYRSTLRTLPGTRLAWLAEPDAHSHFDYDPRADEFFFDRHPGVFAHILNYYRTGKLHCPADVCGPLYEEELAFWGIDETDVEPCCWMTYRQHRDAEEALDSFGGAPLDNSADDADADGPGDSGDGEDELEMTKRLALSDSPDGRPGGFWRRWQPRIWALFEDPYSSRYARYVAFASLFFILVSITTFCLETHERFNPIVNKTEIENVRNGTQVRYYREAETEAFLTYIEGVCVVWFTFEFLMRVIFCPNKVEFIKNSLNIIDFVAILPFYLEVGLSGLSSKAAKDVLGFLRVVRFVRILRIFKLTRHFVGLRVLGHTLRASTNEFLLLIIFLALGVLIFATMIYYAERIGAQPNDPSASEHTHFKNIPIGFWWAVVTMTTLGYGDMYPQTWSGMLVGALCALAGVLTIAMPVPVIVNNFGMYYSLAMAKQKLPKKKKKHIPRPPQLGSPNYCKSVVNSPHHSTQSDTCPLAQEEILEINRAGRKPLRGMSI
The test can be described thus: Kv3.1 channel modulation, IonWorks Quattro planar array electrophysiology. The class given is cell-based. As to conditions: HEK-293 cells expressing human Kv3.1; for EC50: read-out: Kv3.1 pEC50 (converted); for Kv3.1 max R %: normalised to maximum effect of 50 microM reference compound. (In general: Patch clamp records ionic current or voltage across a cell membrane.)

Test [2] addresses CYP1A2 (Homo sapiens, UniProt P05177). Nature of the test: CYP450 inhibition, pro-fluorescent probe substrate (1A2/ER).
In test [3] the target is T2, CYP3A4 (Homo sapiens, UniProt P08684).
T2 construct: purchased
The test can be described thus: CYP450 inhibition, pro-fluorescent probe substrate (3A4/7BQ). Type of test: in vitro ADME. The note with it: recombinant human CYP450, substrate 7-BQ; top concentration 5.00E-05; read-out: CYP3A47BQ.

The target of test [4] is T3, CYP2C8 (Homo sapiens, UniProt P10632).
T3 construct: purchased
T3 sequence (P10632 1-490): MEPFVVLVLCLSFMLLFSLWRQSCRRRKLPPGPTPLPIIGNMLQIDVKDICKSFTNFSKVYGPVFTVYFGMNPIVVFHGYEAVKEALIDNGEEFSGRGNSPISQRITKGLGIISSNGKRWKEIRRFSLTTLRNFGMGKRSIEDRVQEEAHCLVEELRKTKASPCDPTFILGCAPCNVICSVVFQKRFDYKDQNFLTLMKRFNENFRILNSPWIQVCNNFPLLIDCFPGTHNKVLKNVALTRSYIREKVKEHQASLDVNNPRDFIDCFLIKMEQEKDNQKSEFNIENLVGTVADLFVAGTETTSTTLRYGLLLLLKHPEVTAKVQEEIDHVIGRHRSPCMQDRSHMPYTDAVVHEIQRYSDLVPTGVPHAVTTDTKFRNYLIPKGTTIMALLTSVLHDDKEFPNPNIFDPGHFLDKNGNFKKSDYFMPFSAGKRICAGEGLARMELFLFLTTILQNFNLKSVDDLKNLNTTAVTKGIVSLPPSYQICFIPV
The test can be described thus: CYP450 inhibition, Vivid Baculosomes (2C8/DBOMF). The note with it: recombinant human CYP450 Baculosomes, substrate DBOMF; top concentration 5.00E-05. The class given is in vitro ADME. From the text: (§1) The method uses recombinant human CYP450 to metabolize pro-fluorescent probe substrates to fluorescent products. IC50 values for the effect of test compounds on the metabolism of these probe substrates provides a measure of the potency of inhibition of individual CYP450 isoforms.
(§2) The described assays measure in vitro inhibitory effects (pIC50) of compounds at the human P450 isoforms (1A2, 2C8, 2C9, 2C19, 2D6, 3A4) expressed in recombinant microsomes. Pro-fluorescent probe substrates are metabolized to fluorescent products by the enzymes.
(§3) Fluorescence is measured in kinetic mode (1 read/min for 10 min) and the fluorescence rate is calculated. Data are normalized to controls: DMSO represents 0% effect (i.e. no inhibition), while 10 μM Miconazole is set to 100% effect (i.e. complete inhibition).
(§4) Inhibition of the fluorescent signal determined by P450 […] indicates antagonist activity of the compound and allows for the calculation of the compound plC50.
(§5) CRCs of compounds are run on two different test occasions (n=2) by preparing serial dilutions from the same compound stock solution. Details of the solutions are outlined in Table 6:
(§6) Test compound serial dilutions 1 to 3 were performed from a 10 mM stock solution in DMSO by Biomek FX to generate 10 point CRC. 100% DMSO was used for assay low controls. 10 mM (2 mM for 3A4/DBOMF, 2C8/DBOMF assay only) miconazole solution in DMSO was used as assay high controls. The final concentrations of the 10 point CRCs of test compounds in the assay plate were 5.00E-05; 1.67E-05; 5.56E-06; 1.85E-06; 6.17E-07; 2.06E-07; 6.86E-08; 2.29E-08; 7.62E-09 and 2.54E-09, respectively.
(§7) The CYP3A4 and CYP2C8 were assayed using the Vivid CYP3A4 Baculosomes, CYP2C8 Baculosomes and Vivid DBOMF Substrate. […]
(§8) 10 μl/well from compound plate was added and incubated for 10 min at 37° C. on a plate shaker. […] The plate was transferred into the fluorescent plate reader (EnVision, Wallac) immediately within 2 min and monitor fluorescence every minute for 10 (Excitation 485, Emission 535 and Mirror 505 FITC). […]
(§9) The inhibition effect was expressed as percentage. […]

In test [5] the target is T2, CYP3A4. The test can be described thus: CYP450 inhibition, Vivid Baculosomes (3A4/DBOMF). Type of test: in vitro ADME. As to conditions: substrate DBOMF, top concentration 5.00E-05, read-out: CYP3A4DBOMF.
Description: as §1, §2, §3, §4, §5, §6, §7, §8, §9

Test [6] has as its target CYP2C19 (Homo sapiens, UniProt P33261). The test can be described thus: CYP450 inhibition, pro-fluorescent probe substrate (2C19/BMC). Type of test: in vitro ADME. As to conditions: recombinant human CYP450, substrate BMC; top concentration 5.00E-05.
Where [7] appears, read: currents at −15 mV voltage step, normalised to 50 microM reference compound and vehicle.

Where only a bound is given, the exact number is not on record here.

T2 sequence (P08684 whole entry): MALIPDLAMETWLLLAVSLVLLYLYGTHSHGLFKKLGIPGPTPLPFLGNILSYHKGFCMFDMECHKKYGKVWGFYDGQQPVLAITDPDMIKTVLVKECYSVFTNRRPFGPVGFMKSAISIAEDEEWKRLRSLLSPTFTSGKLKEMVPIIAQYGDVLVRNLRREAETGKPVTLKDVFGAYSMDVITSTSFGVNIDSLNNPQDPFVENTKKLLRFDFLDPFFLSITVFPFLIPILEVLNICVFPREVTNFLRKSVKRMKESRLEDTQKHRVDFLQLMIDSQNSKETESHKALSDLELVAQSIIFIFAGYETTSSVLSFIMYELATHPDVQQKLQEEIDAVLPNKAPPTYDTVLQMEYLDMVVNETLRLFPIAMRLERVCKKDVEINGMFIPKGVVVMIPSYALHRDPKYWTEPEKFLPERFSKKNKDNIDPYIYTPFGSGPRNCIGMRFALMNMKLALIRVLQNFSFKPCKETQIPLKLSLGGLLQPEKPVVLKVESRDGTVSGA
Sequence of CYP1A2 (P05177 whole entry): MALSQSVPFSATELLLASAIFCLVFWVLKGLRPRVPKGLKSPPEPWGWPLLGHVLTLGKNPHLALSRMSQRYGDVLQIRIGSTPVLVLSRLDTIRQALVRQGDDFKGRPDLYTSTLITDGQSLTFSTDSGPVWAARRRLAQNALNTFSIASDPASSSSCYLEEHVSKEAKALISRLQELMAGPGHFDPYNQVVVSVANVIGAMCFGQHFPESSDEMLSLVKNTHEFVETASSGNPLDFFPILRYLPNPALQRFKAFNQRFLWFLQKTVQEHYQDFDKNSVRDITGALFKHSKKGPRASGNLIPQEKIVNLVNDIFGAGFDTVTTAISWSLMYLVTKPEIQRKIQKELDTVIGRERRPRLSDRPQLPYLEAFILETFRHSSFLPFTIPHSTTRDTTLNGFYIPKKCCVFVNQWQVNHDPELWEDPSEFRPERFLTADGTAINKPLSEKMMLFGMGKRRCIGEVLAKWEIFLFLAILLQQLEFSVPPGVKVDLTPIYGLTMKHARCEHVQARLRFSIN
Sequence of CYP2C19 (P33261 whole entry): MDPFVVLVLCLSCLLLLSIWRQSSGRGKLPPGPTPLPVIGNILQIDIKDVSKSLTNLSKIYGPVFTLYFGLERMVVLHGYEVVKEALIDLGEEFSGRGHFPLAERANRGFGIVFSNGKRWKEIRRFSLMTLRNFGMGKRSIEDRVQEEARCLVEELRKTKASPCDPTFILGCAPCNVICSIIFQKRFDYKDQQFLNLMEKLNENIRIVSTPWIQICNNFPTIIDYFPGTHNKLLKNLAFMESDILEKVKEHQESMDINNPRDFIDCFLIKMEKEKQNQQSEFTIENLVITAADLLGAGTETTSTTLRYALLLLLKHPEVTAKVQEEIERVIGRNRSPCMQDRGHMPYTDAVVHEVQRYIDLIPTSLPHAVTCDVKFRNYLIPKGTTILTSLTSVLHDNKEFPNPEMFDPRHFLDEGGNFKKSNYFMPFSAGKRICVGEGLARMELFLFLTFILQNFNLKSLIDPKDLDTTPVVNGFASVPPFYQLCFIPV

Take `Cc1ccc(Oc2ccc(N3C(=O)NC(C)(C)C3=O)c(N)n2)c2c1OCC21CC1` [Example 1, 3-[2-amino-6-(7-methylspiro[2H-benzofuran-3,1′-cyclopropane]-4-yl)oxy-3-pyridyl]-5,5-dimethyl-imidazolidine-2,4-dione]: in test [1] (setting [7]), the “Kv3.1 pEC50” value is on record as 6.6. Further, the EC50 in test [1] (setting [7]) is 0.251 µM. The “Kv3.1 max R %” value in test [1] is 183%. For the same compound, the IC50 in test [2] was > 50 µM; in test [3], > 50 µM; in test [4], 8.9 µM; in test [5], > 50 µM; in test [6], > 50 µM.

As to `CC1(C)NC(=O)N(c2ccc(Oc3cccc(OC(F)(F)F)c3)nc2N)C1=O` [Example 9, 3-[2-amino-6-[3-(trifluoromethoxy)phenoxy]-3-pyridyl]-5,5-dimethyl-imidazolidine-2,4-dione], in test [1] (setting [7]), the EC50 was 2.51 µM. Moreover, the “Kv3.1 max R %” value in test [1] is 118%. Besides, the IC50 was > 50 µM in test [2]; > 50 µM in test [3]; > 50 µM in test [4]; > 50 µM in test [5]; 21 µM in test [6].

Consider `COc1nc(Oc2ccc(C)c3c2C2(CC2)CO3)ccc1N1C(=O)NC(C)(C)C1=O` [Reference Example 2, reference compound], for which the EC50 in test [1] (setting [7]) was 1 µM. The IC50 in test [2] was > 50 µM; in test [3], > 50 µM; in test [4], 2.3 µM; in test [5] it was 10.2 µM; in test [6] it was 1.1 µM.

Values taken from patent US20260199309A1, “COMPOUNDS FOR THE TREATMENT OF CENTRA NERVOUS SYSTEM DISORDERS” (Autifony Therapeutics Limited, priority 2022, published 2026).
